Experimental findings from patent publication US9434724B2, “Quinuclidines for modulating alpha 7 activity” (priority 2014, dated 2016) are described below.

Structures are written as SMILES. Counter-ions that a name gives are not always drawn. Like-named read-outs stand apart in the source and are kept apart here.

A short description of series [1]: Metabolic stability assay in human liver microsomes (HLM). In kind it is in vitro ADME. To be noted: 1 μM. In short, it runs like this:
(§1)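 In Protocol 1, compound was 1 μM final with NADPH at 37 °C, sampled at 0–45 min. In Protocol 2, 1.5 μM compound with 0.75 mg/mL microsomes (pre-NADPH mix) in 0.1 M potassium phosphate, 1 mM EDTA, pH 7.4 was pre-incubated 10 min, then NADPH started the reaction. Both: LC-MS/MS % remaining versus time 0, half-life from single-phase exponential fit.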
(Liver microsomes are a subcellular fraction often used to study metabolism.)

Series [2] deals with T1, rat brain nicotinic receptor (α7 NAChR) (Rattus norvegicus (Rat), UniProt Q05941). The series is classed as binding.
The nature of series [3]: Metabolic stability assay in rat liver microsomes (RLM). The series is classed as in vitro ADME. To be noted: 1 μM. The essentials: as §1
The target in a further series is Human α7 NAChR (Homo sapiens (Human), UniProt P36544). The series can be described thus: Electrophysiology screen at 1 μM in Xenopus laevis oocytes. The series is classed as cell-based. To be noted: 1 μM test compound; Imax = maximal current produced by 3 mM ACh. On the procedure:
Human α7 NAChR plasmid was prepared by GeneWiz from accession NM_000746.5. Human α7 NAChR mRNA was prepared by TriLink at a concentration near 1 μg/μL. The human α7 NAChR mRNA was diluted in sterile water to a working concentration near 10 ng/μL.
Oocytes were obtained from Xenopus laevis frogs and treated with collagenase by Ecocyte Bioscience. Oocytes were injected with the working concentration of α7 NAChR mRNA at a volume of 50 nL for a total of approximately 0.5 ng of α7 NAChR mRNA. Oocytes were maintained in Barth's solution at a temperature of 16° C. The Barth's solution was replaced daily.
Two-electrode voltage clamp recordings were made 3-14 days following mRNA injections at a holding voltage of −70 mV. The NAChR recordings were performed in Ca^++-free Ringer solution (115 mM NaCl, 2 mM KCl, 1.8 mM BaCl2, 5 mM HEPES; pH˜7.4) to limit Ca^++-activated chloride currents.
In all oocyte recordings, drug and wash solutions were applied using a custom-designed microcapillary “linear array” which allows rapid application of agonists. Currents were recorded on a PC-based computer (PClamp, Molecular Devices, Sunnyvale, Calif.). Responses were reported as (I/Imax), where I is the amount of current given by a selected concentration of drug and Imax is the amount of maximal current produced by a 3 mM solution of ACh.
Stocks of test compounds were prepared in DMSO. Test solutions in Ringer were prepared immediately before application of test compound (final DMSO concentration of 0.1%). The final concentration of test compound in the test solution was 1 μM. The test solution was perfused onto the oocyte until a peak current was recorded. There was approximately two minutes of wash time with only the Ringer solution between each application of agonist. Measurement of the test solution was repeated between 2 and 6 times with a two minute wash time between each application of test solution. An average of the currents for each test compound was used to define the response for the test compound.

A short description of a further series: Human plasma stability. In kind it is in vitro ADME. The note with it: plasma, 5 μM. The essentials:
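Compound remaining was quantified by LC-MS/MS as peak-area ratio to internal standard relative to time 0, with half-lives from single-exponential fits. Protocol 1 incubated 1 μM in heparinized human plasma (pH 7.4, 37° C) to 120 min; protocol 2 used 5 μM, pH 7.4–8.0, 37° C, n=2, to 120 min.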

The target of series [4] is T1, rat brain nicotinic receptor (α7 NAChR). The series is classed as binding. The note with it: Protocol No. 2; [3H] α-Bungarotoxin 0.4 nM, rat brain P2 membrane.
The mark [5] stands for this setting: Protocol No. 1, human liver microsomes.
Where [6] appears, read: Protocol No. 1, rat liver microsomes.

T1 sequence (Q05941 23-502 limits assumed): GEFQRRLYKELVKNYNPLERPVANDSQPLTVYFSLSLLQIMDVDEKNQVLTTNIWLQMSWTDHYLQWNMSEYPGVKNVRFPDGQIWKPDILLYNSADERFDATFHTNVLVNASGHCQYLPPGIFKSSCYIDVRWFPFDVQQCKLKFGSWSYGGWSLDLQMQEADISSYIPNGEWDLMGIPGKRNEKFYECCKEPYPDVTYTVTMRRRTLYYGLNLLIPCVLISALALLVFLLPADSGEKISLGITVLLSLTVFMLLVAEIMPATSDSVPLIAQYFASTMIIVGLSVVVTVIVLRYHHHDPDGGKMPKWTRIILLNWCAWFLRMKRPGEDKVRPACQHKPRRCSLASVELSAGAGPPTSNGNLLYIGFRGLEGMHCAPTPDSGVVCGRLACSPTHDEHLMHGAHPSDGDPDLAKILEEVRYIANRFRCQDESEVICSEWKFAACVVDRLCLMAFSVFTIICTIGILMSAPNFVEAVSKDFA
Human α7 NAChR, sequence (P36544 23-502 limits assumed): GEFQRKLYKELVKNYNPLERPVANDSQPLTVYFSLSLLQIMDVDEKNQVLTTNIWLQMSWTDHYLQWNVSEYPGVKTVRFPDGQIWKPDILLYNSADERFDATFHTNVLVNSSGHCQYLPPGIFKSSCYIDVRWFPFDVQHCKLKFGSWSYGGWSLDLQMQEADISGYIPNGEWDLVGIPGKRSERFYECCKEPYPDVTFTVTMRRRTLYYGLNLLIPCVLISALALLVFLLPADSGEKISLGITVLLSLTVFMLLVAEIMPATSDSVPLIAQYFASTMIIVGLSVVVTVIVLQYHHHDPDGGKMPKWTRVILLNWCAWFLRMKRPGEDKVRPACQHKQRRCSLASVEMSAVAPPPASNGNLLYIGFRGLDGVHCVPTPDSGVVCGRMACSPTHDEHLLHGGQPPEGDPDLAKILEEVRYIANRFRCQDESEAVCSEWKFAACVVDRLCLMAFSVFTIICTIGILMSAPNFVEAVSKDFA

Compound `COc1cc(Cl)cc2[nH]cc(C(=O)OCC34CCN(CC3)CC4)c12.Cl` [Compound 74, quinuclidin-4-ylmethyl 6-chloro-4-methoxy-1H-indole-3-carboxylate hydrochloride] came in with an HLM in series [1] (setting [5]) of 9.6502 mL/min/kg. For the same compound, in series [2], 181 nM corresponded to half-maximal inhibition (IC50); the Ki (usually the dissociation constant of the complex between target and ligand, obtained from inhibition or displacement) was 154 nM. Moreover, the RLM in series [3] (setting [6]) was found to be 342.736 mL/min/kg. The compound also had an I/Imax on Human α7 NAChR of 0.157. Moreover, the “% Remaining @ 2 h” value in “Human plasma stability” (Protocol No. 2, 37° C.) is on record as 61.85%.
For `Cl.O=C(OCC12CCN(CC1)CC2)c1c[nH]c2cccc(C(F)(F)F)c12` [Compound 80, Quinuclidin-4-ylmethyl 4-(trifluoromethyl)-1H-indole-3-carboxylate hydrochloride], the HLM in series [1] (setting [5]) turned out to be 5.54 mL/min/kg. In series [2], the IC50 – broadly, the concentration that inhibits the measured activity by half – was found to be 203 nM and the affinity, expressed as Ki, was 176 nM. In addition, the RLM in series [3] (setting [6]) is on record as 1443.16 mL/min/kg. Moreover, at Human α7 NAChR, the I/Imax turned out to be 0.032. In “Human plasma stability” (Protocol No. 2, 37° C.), the “% Remaining @ 2 h” value stood at 81.31%.
In series [1] (human, microsomes), `COCCCOc1ccc2[nH]cc(C(=O)OCC34CCN(CC3)CC4)c2c1C` [Compound 92, quinuclidin-4-ylmethyl 5-(3-methoxypropoxy)-4-methyl-1H-indole-3-carboxylate] had an HLM of 10.37 mL/min/kg. This compound registered an RLM in series [3] (rat, microsomes) of 149.88 mL/min/kg. At Human α7 NAChR, this compound displayed an I/Imax of 0.266. In series [4], this compound came in with an IC50 of 76.1 nM and a Ki of 133 nM. Moreover, the “% Remaining @ 2 h” value in the series “Human plasma stability” (human, 2 h) is 64.72%.
For the compound `Cc1cc2[nH]cc(C(=O)OCC34CCN(CC3)CC4)c2cc1F` [Compound 72, Quinuclidin-4-ylmethyl 5-fluoro-6-methyl-1H-indole-3-carboxylate hydrochloride], in series [1] (setting [5]), the HLM was determined as 3.032 mL/min/kg. In series [2], this compound yielded an IC50 of 145 nM and an inhibition constant (Ki) of 125 nM. The same compound showed an RLM in series [3] (setting [6]) of 339.452 mL/min/kg. Moreover, at Human α7 NAChR, the I/Imax is 0.347. Moreover, the “% Remaining @ 2 h” value in “Human plasma stability” (Protocol No. 2, 37° C.) is listed as 70.78%.
Take `Cc1ccc2[nH]cc(C(=O)OCC34CCN(CC3)CC4)c2c1Cl` [Compound 63, quinuclidin-4-ylmethyl 4-chloro-5-methyl-1H-indole-3-carboxylate]: the HLM in series [1] (human, microsomes) was found to be 0.4623 mL/min/kg. In series [2], half-maximal inhibition (IC50) required 117 nM and the Ki was found to be 101 nM. In series [3] (rat, microsomes), this compound registered an RLM of 1465.43 mL/min/kg. This compound also came in with an I/Imax on Human α7 NAChR of 0.118. For the same compound, the “% Remaining @ 2 h” value in “Human plasma stability” (human, 2 h) worked out at 74.47%.
In series [1] (human, microsomes), `COCCOc1ccc2[nH]cc(C(=O)OCC34CCN(CC3)CC4)c2c1C` [Compound 91, quinuclidin-4-ylmethyl 5-(2-methoxyethoxy)-4-methyl-1H-indole-3-carboxylate] had an HLM of 6.14 mL/min/kg. The RLM in series [3] (rat, microsomes) is 235.4 mL/min/kg. This compound also returned an I/Imax on Human α7 NAChR of 0.205. In series [4], this compound gave a half-maximal inhibitory concentration (IC50) of 221 nM and a Ki of 859 nM. Also, the “% Remaining @ 2 h” value in “Human plasma stability” (human, 2 h) was determined as 81.12%.
`Cc1cc2[nH]cc(C(=O)OCC34CCN(CC3)CC4)c2cc1C.Cl` [Compound 73, Quinuclidin-4-ylmethyl 5,6-dimethyl-1H-indole-3-carboxylate hydrochloride] showed an HLM in series [1] (setting [5]) of 2.825 mL/min/kg. In series [2], inhibition was half-maximal at 168 nM (IC50) and the affinity corresponds to a Ki of 145 nM. This compound had an RLM in series [3] (setting [6]) of 766.779 mL/min/kg. Moreover, the I/Imax on Human α7 NAChR is recorded as 0.367. The “% Remaining @ 2 h” value in “Human plasma stability” (Protocol No. 2, 37° C.) stood at 41.93%.
In series [1] (human, microsomes), `O=C(OCC12CCN(CC1)CC2)c1c[nH]c2ccc(F)c(Cl)c12` [Compound 62, quinuclidin-4-ylmethyl 4-chloro-5-fluoro-1H-indole-3-carboxylate hydrochloride] had an HLM of 7.061 mL/min/kg. In series [2], this compound registered an IC50 of 113 nM and a Ki of 97.6 nM. In series [3] (rat, microsomes), this compound came in with an RLM of 498.991 mL/min/kg. The compound further displayed an I/Imax at Human α7 NAChR of 0.171. The “% Remaining @ 2 h” value in the series “Human plasma stability” (human, 2 h) is 74.02%.
